From patent publication US20250268897A1, “USE OF HETEROCYCLIC COMPOUND IN TREATING DISEASES RELATED TO KINASE DRUG-RESISTANT MUTATION AND METHOD THEREFOR” (Sichuan Kelun-Biotech Biopharmaceutical Co., Ltd., priority 2021, published 2025)

What was measured:
[1] = target: RET-G810R enzyme (Homo sapiens (Human), UniProt P07949, G810R); experiment: RET inhibition experiment, HTRF KinEASE-TK kit, RET-G810R; format: biochemical
[2] = target: RET-G810S enzyme (Homo sapiens (Human), UniProt P07949, G810S); experiment: RET inhibition experiment, HTRF KinEASE-TK kit, RET-G810S; format: biochemical
[3] = target: RET-G810C enzyme (Homo sapiens (Human), UniProt P07949, G810C); experiment: RET inhibition experiment, HTRF KinEASE-TK kit, RET-G810C; format: biochemical
[4] = tested on: Ba/F3 KIF5B-RET^G810R cells; experiment: Inhibition of cell proliferation, Cell Titer Glo, Ba/F3 KIF5B-RET^G810R; format: cell-based
Method: (§1) Experimental purpose: To evaluate the inhibitory effect of the compound on proliferation of three BaF3 cell lines (Ba/F3 KIF5B-RET^G810R, Ba/F3 KIF5B-RET^G810S, Ba/F3 KIF5B-RET^G810C) in vitro.
(§2) Experimental method: Three Ba/F3 cell lines (Ba/F3 KIF5B-RET^G810R, Ba/F3 KIF5B-RET^G810S Ba/F3 KIF5B-RET^G810C) in logarithmic phase were respectively collected and inoculated into 96-well plates, with 2000 cells/95 μl/well. […] In addition, negative control wells (without the test compound) and blank control wells (without cells) were set.
(§3) the inhibition rate % was fitted using the four-parameter equation “log(agonist) vs response-variable slope (four parameters)” in GraphPad Prism 6.0, and the IC50 was obtained by calculation.

[5] = tested on: Ba/F3 KIF5B-RET^G810S cells; experiment: Inhibition of cell proliferation, Cell Titer Glo, Ba/F3 KIF5B-RET^G810S; format: cell-based
Method: as §1, §2, §3

[6] = tested on: Ba/F3 KIF5B-RET^G810C cells; experiment: Inhibition of cell proliferation, Cell Titer Glo, Ba/F3 KIF5B-RET^G810C; format: cell-based
Method: as §1, §2, §3

[7] = tested on: Ba/F3 KIF5B-RET^G810R subcutaneous tumour; experiment: In vivo efficacy in BALB/c Nude mouse model with Ba/F3 KIF5B-RET^G810R subcutaneous tumour; details: 30 mg/kg, PO, BID × 12
[8] = Mus musculus, BaF3, 72 h, 3 days culture, Cell Titer Glo

Chain of RET-G810C enzyme (P07949 29-1114 G810C): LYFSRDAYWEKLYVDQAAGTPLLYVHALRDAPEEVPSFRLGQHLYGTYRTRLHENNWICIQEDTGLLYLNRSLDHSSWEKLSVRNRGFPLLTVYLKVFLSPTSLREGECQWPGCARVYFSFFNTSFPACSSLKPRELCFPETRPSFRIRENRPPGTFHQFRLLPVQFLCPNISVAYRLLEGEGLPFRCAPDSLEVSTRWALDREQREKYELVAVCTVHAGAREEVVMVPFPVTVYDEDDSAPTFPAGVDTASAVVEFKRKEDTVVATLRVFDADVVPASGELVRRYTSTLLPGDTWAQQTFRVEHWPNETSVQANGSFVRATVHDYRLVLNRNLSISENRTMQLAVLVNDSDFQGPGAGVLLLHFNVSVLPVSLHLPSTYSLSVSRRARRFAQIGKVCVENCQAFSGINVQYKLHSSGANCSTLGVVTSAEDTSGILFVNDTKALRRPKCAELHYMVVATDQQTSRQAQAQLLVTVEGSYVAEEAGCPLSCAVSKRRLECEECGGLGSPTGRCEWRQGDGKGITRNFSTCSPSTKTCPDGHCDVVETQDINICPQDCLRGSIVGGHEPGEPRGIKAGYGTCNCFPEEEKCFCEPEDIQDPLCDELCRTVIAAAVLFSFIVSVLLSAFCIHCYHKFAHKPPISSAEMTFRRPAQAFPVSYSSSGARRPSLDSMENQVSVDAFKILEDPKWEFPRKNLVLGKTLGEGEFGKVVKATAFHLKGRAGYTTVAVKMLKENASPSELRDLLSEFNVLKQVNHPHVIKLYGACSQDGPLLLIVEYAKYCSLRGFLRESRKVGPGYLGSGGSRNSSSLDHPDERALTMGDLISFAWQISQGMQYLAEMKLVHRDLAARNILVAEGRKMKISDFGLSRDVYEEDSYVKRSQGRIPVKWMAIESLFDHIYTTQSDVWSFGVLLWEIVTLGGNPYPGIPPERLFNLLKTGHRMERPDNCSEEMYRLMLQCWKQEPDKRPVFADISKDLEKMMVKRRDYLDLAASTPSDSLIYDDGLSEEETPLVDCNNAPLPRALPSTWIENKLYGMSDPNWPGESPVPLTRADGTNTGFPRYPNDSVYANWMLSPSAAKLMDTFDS
Chain of RET-G810R enzyme (P07949 29-1114 G810R): as the sequence (P07949 29-1114 G810C) above, with C782R counted along it
Chain of RET-G810S enzyme (P07949 29-1114 G810S): as the sequence (P07949 29-1114 G810C) above, with C782S counted along it

In the case of `Cc1cc(Nc2cc(C)[nH]n2)nc(-c2ccc(N3CC4CC(C3)N4Cc3ccc(-n4cc(F)cn4)nc3)nc2)n1.O=C(O)/C=C/C(=O)O` [Compound 1-A, Fumarate of 2-(6-(6-((6-(4-fluoro-1H-pyrazol-1-yl)pyridin-3-yl)methyl)-3,6-diazabicyclo [3.1.1]heptan-3-yl)pyridin-3-yl)-6-methyl-N-(5-methyl-1H-pyrazol-3-yl) pyrimidin-4-amine], the IC50 ([1]; Table 7, value ± spread) is reported as 19.6 ± 0.67 nM, the “Inhibition on RET-G810R enzyme (in words)” value ([1]; summary of tables) is reported as “remarkably inhibited” and the IC50 ([2]; Table 7, value ± spread) is reported as 2.69 ± 0.56 nM. The “Inhibition on RET-G810S enzyme (in words)” value ([2]; summary of tables) was “remarkably inhibited”, the IC50 ([3]; Table 7, value ± spread) was 53.2 ± 10.7 nM and the “Inhibition on RET-G810C enzyme (in words)” value ([3]; summary of tables) was “remarkably inhibited”. The IC50 [4, 8] was 26.3 ± 5.76 nM, the “Inhibiting the proliferation of Ba/F3 KIF5B-RET^G810R cells (in words)” value ([4]; comparison with controls) was “superior to BLU-667 and Loxo-292” and the IC50 [5, 8] was 20.2 ± 0.35 nM. For the same compound, the “Inhibiting the proliferation of Ba/F3 KIF5B-RET^G810S cells (in words)” value ([5]; comparison with controls) was “superior to BLU-667 and Loxo-292”, the IC50 [6, 8] was 65.3 ± 1 nM and the “Inhibiting the proliferation of Ba/F3 KIF5B-RET^G810C cells (in words)” value ([6]; comparison with controls) was “superior to BLU-667 and Loxo-292”. For the same compound, the “TGI (%) tumour growth inhibition rate” value [7] was 72.37%, the “VP12 (mm^3, mean ± SEM): tumour volume on Day 12 of administration” value [7] was 278.53 ± 51.13 mm^3 and the “VP-1 (mm^3, mean ± SEM): tumour volume one day before administration” value ([7]; baseline of the group) was 101.08 ± 4.75 mm^3.
